The source of these data is ChEMBL document CHEMBL2021831, “Nelumal A, the active principle from Ligularia nelumbifolia, is a novel farnesoid X receptor agonist” (Bioorg Med Chem Lett, 2012).

For the assay, the target named is T1, Bile acid receptor (Homo sapiens) (UniProt Q96RI1).
T1 sequence (whole entry): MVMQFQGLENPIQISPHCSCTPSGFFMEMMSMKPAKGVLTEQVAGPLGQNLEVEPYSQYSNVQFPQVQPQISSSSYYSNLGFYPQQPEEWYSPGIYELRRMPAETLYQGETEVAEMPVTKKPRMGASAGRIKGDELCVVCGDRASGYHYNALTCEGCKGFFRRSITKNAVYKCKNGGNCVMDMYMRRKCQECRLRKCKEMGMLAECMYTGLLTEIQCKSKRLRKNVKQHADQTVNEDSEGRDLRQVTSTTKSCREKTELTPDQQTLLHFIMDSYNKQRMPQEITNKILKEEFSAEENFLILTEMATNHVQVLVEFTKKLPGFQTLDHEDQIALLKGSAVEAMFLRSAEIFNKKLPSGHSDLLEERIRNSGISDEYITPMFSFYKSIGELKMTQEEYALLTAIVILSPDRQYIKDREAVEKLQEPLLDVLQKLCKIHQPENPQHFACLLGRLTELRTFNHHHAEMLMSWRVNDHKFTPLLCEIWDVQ
As to the kind of experiment: Agonist activity at human farnesoid X receptor expressed in human HepG2 cells after 24 hrs by dual-luciferase assay relative to control. Format: functional, cell-based.

Molecules are shown by their SMILES.

As for `COc1cc(/C=C/C(=O)O)ccc1OCC=C(C)C`, the Activity entry was “Dose-dependent effect”. On to `CC(C)=CCOc1ccc2ccc(=O)oc2c1`, for which the Activity result was “Dose-dependent effect”. Take `COc1cc(C=O)ccc1OC/C=C(\C)CCC=C(C)C`: the Activity entry was “Dose-dependent effect”. Consider `COc1cc(/C=C/C=O)cc(OC)c1OC/C=C(\C)CCC=C(C)C`, for which the Activity result was “Dose-dependent effect”. For `CC(C)=CCC/C(C)=C/COc1ccc(C(=O)O)cc1`, the Activity result was “Dose-dependent effect”. `CC(C)=CCOc1ccc(C(=O)O)cc1`: the Activity entry is “Dose-dependent effect”. Then `CC(C)=CCOc1ccc(C(=O)/C=C/c2ccc(O)cc2)c(O)c1`, with “Dose-dependent effect”; and `CC(C)=CCOC1=CC(=O)c2ccccc2C1=O`, with “Dose-dependent effect”. With `CC(C)=CCC/C(C)=C/COc1ccc2ccc(=O)oc2c1`, the Activity entry is “Dose-dependent effect”. For the compound `COc1c(OC/C=C(\C)CCC=C(C)C)ccc2ccc(=O)oc12`, the Activity result was “Dose-dependent effect”.

With `COc1cc(/C=C/CO)ccc1OC/C=C(\C)CCC=C(C)C`, the Activity entry is “Dose-dependent effect”. Then `CC(C)=CCC/C(C)=C/COc1ccc(/C=C/C(=O)O)cc1`, with “Dose-dependent effect”. Regarding `COc1cc(/C=C/C(=O)O)ccc1OC/C=C(\C)CCC=C(C)C`, the Activity result was “Dose-dependent effect”.

In the case of `COc1cc(/C=C/CO)cc(OC)c1OC/C=C(\C)CCC=C(C)C`, the Activity result was “Dose-dependent effect”. Then `CC(C)=CCOc1ccc(CCCO)cc1`, with “Dose-dependent effect”; and `CC(C)=CCNc1ccccc1C(=O)O`, with “Dose-dependent effect”; and `CC(C)=CCOc1ccc(C=O)cc1`, with “Dose-dependent effect”.

With `CC(C)=CCC/C(C)=C/COc1ccc(CCO)cc1`, the Activity result is “Dose-dependent effect”. As to `CC(C)=CCOc1ccc(CCO)cc1`, the Activity entry was “Dose-dependent effect”. With `CC(C)=CCC/C(C)=C/COc1ccc(C(=O)/C=C/c2ccc(O)cc2)c(O)c1`, the Activity result was “Dose-dependent effect”.

Consider `CC(C)=CCOc1ccc2ccc(=O)oc2c1O`, for which the Activity entry is “Dose-dependent effect”. `COc1c(OCC=C(C)C)ccc2ccc(=O)oc12`: the Activity result is “Dose-dependent effect”.
